Molecules are shown by their SMILES.

This note sets out measurements from ChEMBL document CHEMBL5724914, “Linking interpersonal differences in gut microbiota composition and drug biotransformation activity” (2024).

Data set [1] can be described thus: The drug is tested on Z-030 corresponding to mouse gut metagenome with ENA study accession number: PRJEB37062 and ENA sample accession number: ERS12561829 for biotransformation under anaerobic condition. The drug concentrations were measured over 9 timepoints collected between 0 and 24 hours of incubation by liquid-chromatography-coupled mass spectrometry (LC–MS). The note with it: 2 µM.

Data set [2] can be described thus: The drug is tested on Z-025 corresponding to rabbit gut metagenome with ENA study accession number: PRJEB37062 and ENA sample accession number: ERS12561824 for biotransformation under anaerobic condition. The drug concentrations were measured over 9 timepoints collected between 0 and 24 hours of incubation by liquid-chromatography-coupled mass spectrometry (LC–MS). As to conditions: 2 µM.

Data set [3] in a line: The drug is tested on Z-022 corresponding to mouse gut metagenome with ENA study accession number: PRJEB37062 and ENA sample accession number: ERS12561821 for biotransformation under anaerobic condition. The drug concentrations were measured over 9 timepoints collected between 0 and 24 hours of incubation by liquid-chromatography-coupled mass spectrometry (LC–MS). As to conditions: 2 µM.

Data set [4] in a line: The drug is tested on Z-017 corresponding to mouse gut metagenome with ENA study accession number: PRJEB37062 and ENA sample accession number: ERS12561816 for biotransformation under anaerobic condition. The drug concentrations were measured over 9 timepoints collected between 0 and 24 hours of incubation by liquid-chromatography-coupled mass spectrometry (LC–MS). As to conditions: 2 µM.

Data set [5] is described as follows: The drug is tested on Z-005 corresponding to metagenome with ENA study accession number: PRJEB37062 and ENA sample accession number: ERS12561805 for biotransformation under anaerobic condition. The drug concentrations were measured over 9 timepoints collected between 0 and 24 hours of incubation by liquid-chromatography-coupled mass spectrometry (LC–MS). As to conditions: 2 µM.

Data set [6] is described as follows: The drug is tested on Z-001 corresponding to mouse gut metagenome with ENA study accession number: PRJEB37062 and ENA sample accession number: ERS12561801 for biotransformation under anaerobic condition. The drug concentrations were measured over 9 timepoints collected between 0 and 24 hours of incubation by liquid-chromatography-coupled mass spectrometry (LC–MS). The note with it: 2 µM.

The nature of data set [7]: The drug is tested on WLS-350 corresponding to human gut metagenome with ENA study accession number: PRJEB37062 and ENA sample accession number: ERS12561789 for biotransformation under anaerobic condition. The drug concentrations were measured over 9 timepoints collected between 0 and 24 hours of incubation by liquid-chromatography-coupled mass spectrometry (LC–MS). The note with it: 2 µM.

Data set [8] can be described thus: The drug is tested on WLS-240 corresponding to human gut metagenome with ENA study accession number: PRJEB37062 and ENA sample accession number: ERS12561773 for biotransformation under anaerobic condition. The drug concentrations were measured over 9 timepoints collected between 0 and 24 hours of incubation by liquid-chromatography-coupled mass spectrometry (LC–MS). As to conditions: 2 µM.

Data set [9] in a line: The drug is tested on WLS-098 corresponding to human gut metagenome with ENA study accession number: PRJEB37062 and ENA sample accession number: ERS12561754 for biotransformation under anaerobic condition. The drug concentrations were measured over 9 timepoints collected between 0 and 24 hours of incubation by liquid-chromatography-coupled mass spectrometry (LC–MS). The note with it: 2 µM.

Data set [10] in a line: The drug is tested on WLS-073 corresponding to human gut metagenome with ENA study accession number: PRJEB37062 and ENA sample accession number: ERS12561749 for biotransformation under anaerobic condition. The drug concentrations were measured over 9 timepoints collected between 0 and 24 hours of incubation by liquid-chromatography-coupled mass spectrometry (LC–MS). The note with it: 2 µM.

A short description of data set [11]: The drug is tested on WLS-038 corresponding to human gut metagenome with ENA study accession number: PRJEB37062 and ENA sample accession number: ERS12561745 for biotransformation under anaerobic condition. The drug concentrations were measured over 9 timepoints collected between 0 and 24 hours of incubation by liquid-chromatography-coupled mass spectrometry (LC–MS). As to conditions: 2 µM.

Data set [12] is described as follows: The drug is tested on WLS-006 corresponding to human gut metagenome with ENA study accession number: PRJEB37062 and ENA sample accession number: ERS12561741 for biotransformation under anaerobic condition. The drug concentrations were measured over 9 timepoints collected between 0 and 24 hours of incubation by liquid-chromatography-coupled mass spectrometry (LC–MS). The note with it: 2 µM.

The conditions of data set [13]: human gut metagenome, 24 h, 2 µM.
The conditions of data set [14]: human gut metagenome, 24 h, 2 µM. This is another data set of the same source.
The conditions of data set [15]: human gut metagenome, 24 h, 2 µM. This is another data set of the same source.
The conditions of data set [16]: human gut metagenome, 24 h, 2 µM. The source holds these as a separate data set.
For data set [17] the following is noted: human gut metagenome, 24 h, 2 µM. The source holds these as a separate data set.
For data set [18] the following is noted: human gut metagenome, 24 h, 2 µM. The source holds these as a separate data set.
The conditions of data set [19]: human gut metagenome, 24 h, 2 µM. The source holds these as a separate data set.
For data set [20] the following is noted: human gut metagenome, 24 h, 2 µM. This is another data set of the same source.
Note: call rule not given here.

As for `CCS(=O)(=O)CCn1c([N+](=O)[O-])cnc1C` [TINIDAZOLE], the “Bacterial Biotransformation” value in [1], in [2], in data set [3], in [4], in data set [5] and in [6] was “Compound metabolized” each time. Further, the “Bacterial Biotransformation” value in data set [7], in data set [8], in [9], in [10], in [11] and in data set [12] was “Compound metabolized” in each case. For the same compound, the “Bacterial Biotransformation” value in [13], in data set [14], in data set [15], in [16], in [17] and in data set [18] was “Compound metabolized” each time. For the same compound, the “Bacterial Biotransformation” value in [19] is “Compound metabolized”.

In the case of `N#Cc1ccc2[nH]cc(CCCCN3CCN(c4ccc5oc(C(N)=O)cc5c4)CC3)c2c1` [VILAZODONE], the “Bacterial Biotransformation” value in data set [1] is “Compound metabolized”; in data set [2], “Compound NOT metabolized”; in data set [3], “Compound metabolized”; in data set [4], “Compound NOT metabolized”; in data set [5], “Compound metabolized”; in [6], “Compound metabolized”. The “Bacterial Biotransformation” value in [7], in [8], in data set [9], in [10], in data set [12] and in data set [13] was “Compound metabolized” each time. Further, the “Bacterial Biotransformation” value in data set [14] is “Compound metabolized”; in [15] it was “Compound metabolized”; in data set [16], “Compound metabolized”; in data set [20], “Compound metabolized”; in data set [17], “Compound metabolized”; in data set [18] it was “Compound NOT metabolized”.

`C#C[C@]1(OC(C)=O)CC[C@H]2[C@@H]3CCC4=C[C@@H](OC(C)=O)CC[C@@H]4[C@H]3CC[C@@]21C` [ETHYNODIOL DIACETATE]: the “Bacterial Biotransformation” value in data set [1], in data set [2], in data set [3], in data set [4], in data set [5] and in data set [6] was “Compound metabolized” throughout. In addition, the “Bacterial Biotransformation” value in data set [7], in [8], in data set [9], in [11], in data set [12] and in [13] was “Compound metabolized” in each case. The “Bacterial Biotransformation” value was “Compound metabolized” in data set [14]; “Compound metabolized” in data set [15]; “Compound metabolized” in [16]; “Compound metabolized” in [20]; “Compound metabolized” in [17]; “Compound NOT metabolized” in data set [18]. Also, the “Bacterial Biotransformation” value in data set [19] was “Compound metabolized”.

In the case of `C[C@]12C=CC(=O)C=C1CC[C@@H]1[C@@H]2C(=O)C[C@@]2(C)[C@H]1CC[C@]2(O)C(=O)CO` [PREDNISONE], the “Bacterial Biotransformation” value is recorded as “Compound NOT metabolized” in data set [1]; “Compound NOT metabolized” in [2]; “Compound metabolized” in data set [3]; “Compound metabolized” in [4]; “Compound NOT metabolized” in data set [5]; “Compound metabolized” in data set [6]. In addition, the “Bacterial Biotransformation” value in data set [7], in data set [8], in [9], in data set [10], in data set [11] and in data set [12] was “Compound metabolized” in each case. Also, the “Bacterial Biotransformation” value is “Compound metabolized” in data set [13]; “Compound metabolized” in data set [14]; “Compound metabolized” in [16]; “Compound metabolized” in data set [20]; “Compound NOT metabolized” in data set [17]; “Compound NOT metabolized” in data set [18]. Moreover, the “Bacterial Biotransformation” value in data set [19] is reported as “Compound metabolized”.

As for `CC1=C(CC(=O)O)c2cc(F)ccc2/C1=C\c1ccc([S+](C)[O-])cc1` (configuration not stated), the “Bacterial Biotransformation” value in data set [1] is on record as “Compound metabolized”; in [2], “Compound NOT metabolized”; in data set [3] it was “Compound NOT metabolized”; in data set [4], “Compound NOT metabolized”; in data set [5], “Compound NOT metabolized”; in data set [6], “Compound NOT metabolized”. Also, the “Bacterial Biotransformation” value in [7], in [8], in [9], in data set [10], in data set [11] and in data set [12] was “Compound metabolized” throughout. The “Bacterial Biotransformation” value in data set [13] was “Compound metabolized”; in [14], “Compound metabolized”; in data set [15], “Compound metabolized”; in data set [16] it was “Compound metabolized”; in data set [20], “Compound metabolized”; in [17] it was “Compound NOT metabolized”. Besides, the “Bacterial Biotransformation” value in data set [19] is given as “Compound metabolized”.

As for `COc1ccc(/C=C/C(=O)Nc2ccccc2C(=O)O)cc1OC`, the “Bacterial Biotransformation” value is listed as “Compound NOT metabolized” in data set [1]; “Compound metabolized” in data set [2]; “Compound metabolized” in data set [3]; “Compound NOT metabolized” in data set [4]; “Compound metabolized” in data set [5]; “Compound NOT metabolized” in [6]. Besides, the “Bacterial Biotransformation” value in data set [7] is on record as “Compound NOT metabolized”; in data set [9], “Compound metabolized”; in data set [10], “Compound metabolized”; in [11] it was “Compound metabolized”; in data set [12], “Compound NOT metabolized”; in [13], “Compound NOT metabolized”. Further, the “Bacterial Biotransformation” value in data set [14], in data set [15], in data set [16], in data set [20], in data set [17] and in data set [18] was “Compound NOT metabolized” throughout.
